Results reported in ChEMBL document CHEMBL1909046, “DrugMatrix in vitro pharmacology data”.

Tests used:
[1] = DRUGMATRIX: Glutamate, AMPA radioligand binding (ligand: [3H] AMPA); assay type: cell membranes, Rattus norvegicus, Wistar, Cerebral cortex, Membrane; conditions: Not Active = under 50% inhibition at 10 µM
[2] = target: Carbonic anhydrase 2 (Homo sapiens, UniProt P00918); test: DRUGMATRIX: Carbonic Anhydrase II enzyme inhibition (substrate: 4-Nitrophenyl acetate (4-NPA)); assay type: tissue-based, Erythrocyte; conditions: Not Active = under 50% inhibition at 10 µM
[3] = target: T1, Glucocorticoid receptor (Homo sapiens, UniProt P04150); conditions: hela s3; also: in other assays of this panel Not Active means under 50% inhibition at 10 µM
T1 sequence (P04150 whole entry): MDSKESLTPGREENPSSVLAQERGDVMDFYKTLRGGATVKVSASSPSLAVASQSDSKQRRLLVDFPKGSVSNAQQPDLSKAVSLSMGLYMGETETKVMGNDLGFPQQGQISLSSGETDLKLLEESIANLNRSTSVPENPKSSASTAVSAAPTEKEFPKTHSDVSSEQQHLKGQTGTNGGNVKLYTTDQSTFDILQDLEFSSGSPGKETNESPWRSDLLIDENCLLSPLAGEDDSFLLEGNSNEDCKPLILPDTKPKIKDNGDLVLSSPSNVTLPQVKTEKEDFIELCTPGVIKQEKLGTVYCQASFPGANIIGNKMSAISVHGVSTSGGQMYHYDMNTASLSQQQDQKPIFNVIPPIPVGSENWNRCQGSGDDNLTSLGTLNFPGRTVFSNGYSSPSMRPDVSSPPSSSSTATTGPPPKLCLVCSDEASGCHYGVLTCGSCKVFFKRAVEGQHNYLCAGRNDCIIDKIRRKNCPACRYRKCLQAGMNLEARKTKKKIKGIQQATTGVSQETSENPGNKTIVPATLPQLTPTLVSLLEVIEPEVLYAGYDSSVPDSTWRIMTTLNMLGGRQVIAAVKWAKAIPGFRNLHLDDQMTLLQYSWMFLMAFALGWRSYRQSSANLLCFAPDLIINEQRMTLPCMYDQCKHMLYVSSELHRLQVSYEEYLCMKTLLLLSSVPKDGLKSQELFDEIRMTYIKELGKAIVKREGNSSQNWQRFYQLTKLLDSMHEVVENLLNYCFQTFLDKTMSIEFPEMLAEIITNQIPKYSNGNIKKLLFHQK

[4] = target: T2, Alpha-1B adrenergic receptor (Rattus norvegicus, UniProt P15823); test: DRUGMATRIX: Alpha-1B adrenergic receptor radioligand binding (ligand: prazosin); assay type: cell membranes, Wistar, Liver, Membrane; conditions: Not Active = under 50% inhibition at 10 µM
T2 sequence (P15823 whole entry): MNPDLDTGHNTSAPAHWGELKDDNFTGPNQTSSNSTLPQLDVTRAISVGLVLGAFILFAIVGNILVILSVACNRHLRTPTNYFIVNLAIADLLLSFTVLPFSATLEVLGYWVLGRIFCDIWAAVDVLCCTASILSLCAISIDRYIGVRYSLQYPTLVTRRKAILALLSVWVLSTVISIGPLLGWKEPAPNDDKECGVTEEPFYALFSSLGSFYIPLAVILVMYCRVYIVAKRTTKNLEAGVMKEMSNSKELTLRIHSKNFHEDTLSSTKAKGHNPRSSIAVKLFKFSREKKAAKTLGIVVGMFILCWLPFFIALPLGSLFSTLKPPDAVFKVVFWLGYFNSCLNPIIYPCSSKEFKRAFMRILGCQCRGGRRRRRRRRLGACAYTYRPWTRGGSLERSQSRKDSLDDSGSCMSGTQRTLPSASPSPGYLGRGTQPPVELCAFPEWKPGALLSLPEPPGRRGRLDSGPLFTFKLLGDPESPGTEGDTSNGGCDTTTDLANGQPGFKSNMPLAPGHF

[5] = target: Substance-P receptor (Homo sapiens, UniProt P25103); assay type: cell membranes, CHO, Membrane; conditions: cho; also: in other assays of this panel Not Active means under 50% inhibition at 10 µM
Chain of Substance-P receptor (P25103 whole entry): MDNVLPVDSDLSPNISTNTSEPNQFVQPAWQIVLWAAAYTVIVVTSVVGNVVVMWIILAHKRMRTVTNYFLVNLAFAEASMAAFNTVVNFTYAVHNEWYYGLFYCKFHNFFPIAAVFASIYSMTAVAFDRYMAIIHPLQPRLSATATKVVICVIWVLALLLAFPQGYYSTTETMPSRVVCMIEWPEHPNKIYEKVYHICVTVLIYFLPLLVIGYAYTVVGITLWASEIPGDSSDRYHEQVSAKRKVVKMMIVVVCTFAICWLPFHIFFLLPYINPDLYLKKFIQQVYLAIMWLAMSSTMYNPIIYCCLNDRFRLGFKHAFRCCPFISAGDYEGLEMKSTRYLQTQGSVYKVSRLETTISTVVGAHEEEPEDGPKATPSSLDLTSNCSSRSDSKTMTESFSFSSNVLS

[6] = target: Adenosine receptor A2a (Homo sapiens, UniProt P29274); test: DRUGMATRIX: Adenosine A2A radioligand binding (ligand: […]); assay type: cell membranes, HEK293, Membrane; conditions: hek293; Not Active = under 50% inhibition at 10 µM
Chain of Adenosine receptor A2a (P29274 whole entry): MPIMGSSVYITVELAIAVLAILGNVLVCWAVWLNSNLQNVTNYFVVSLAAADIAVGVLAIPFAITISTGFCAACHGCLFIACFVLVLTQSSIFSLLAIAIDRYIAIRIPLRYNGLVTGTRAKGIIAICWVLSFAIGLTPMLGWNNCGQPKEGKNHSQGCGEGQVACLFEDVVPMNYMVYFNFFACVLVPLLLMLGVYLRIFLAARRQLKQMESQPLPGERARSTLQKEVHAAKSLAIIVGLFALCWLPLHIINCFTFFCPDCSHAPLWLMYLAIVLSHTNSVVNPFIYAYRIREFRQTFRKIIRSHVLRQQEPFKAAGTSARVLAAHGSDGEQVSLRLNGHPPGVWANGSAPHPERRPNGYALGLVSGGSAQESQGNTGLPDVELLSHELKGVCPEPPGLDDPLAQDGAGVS

[7] = target: Cytochrome P450 3A4 (Homo sapiens, UniProt P08684); conditions: bti-tn-5b1-4; also: in other assays of this panel Not Active means under 50% inhibition at 10 µM
Chain of Cytochrome P450 3A4 (P08684 whole entry): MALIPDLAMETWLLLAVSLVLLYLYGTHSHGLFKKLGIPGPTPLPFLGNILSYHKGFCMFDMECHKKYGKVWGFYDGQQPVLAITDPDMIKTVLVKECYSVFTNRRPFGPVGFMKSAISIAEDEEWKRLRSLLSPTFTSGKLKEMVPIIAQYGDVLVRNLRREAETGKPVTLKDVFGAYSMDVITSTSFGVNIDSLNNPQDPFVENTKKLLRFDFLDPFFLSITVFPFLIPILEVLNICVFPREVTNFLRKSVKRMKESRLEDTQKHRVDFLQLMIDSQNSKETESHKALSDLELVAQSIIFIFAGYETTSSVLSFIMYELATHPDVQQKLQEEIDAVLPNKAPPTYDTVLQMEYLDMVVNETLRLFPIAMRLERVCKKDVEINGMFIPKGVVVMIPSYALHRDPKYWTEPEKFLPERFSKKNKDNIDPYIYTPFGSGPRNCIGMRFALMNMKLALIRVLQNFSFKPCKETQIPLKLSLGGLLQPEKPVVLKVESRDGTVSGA

Compound	IC50 [1]	Ki [1]	IC50 ([2]; erythrocyte)	IC50 [3]	IC50 [4]	IC50 [5]	IC50 [6]	IC50 [7]	Ki [7]	IC50 ([2]; read-out: IC50) [nM]	IC50 ([4]; read-out: IC50) [µM]	Ki ([4]; read-out: Ki) [nM]	Ki ([2]; erythrocyte)	Ki [3]	Ki [4]	Ki [5]	Ki [6]
C[C@@H]1O[C@@H](O[C@H]2C[C@@H](O)[C@]3(CO)[C@H]4[C@H](O)C[C@]5(C)[C@@H](C6=CC(=O)OC6)CC[C@]5(O)[C@@H]4CC[C@]3(O)C2)[C@H](O)[C@H](O)[C@H]1O [OUABAIN]	Not Active	Not Active	Not Active	Not Active	Not Active	Not Active	Not Active	Not Active	Not Active								
COc1ccnc(C[S+]([O-])c2nc3ccc(OC(F)F)cc3[nH]2)c1OC (stereo not drawn) [PANTOPRAZOLE]	Not Active	Not Active	Not Active	Not Active	Not Active	Not Active	Not Active	Not Active	Not Active								
CCc1ccc(CCOc2ccc(CC3SC(=O)NC3=O)cc2)nc1 (stereo not drawn) [PIOGLITAZONE]	Not Active	Not Active		Not Active	Not Active	Not Active	Not Active	Not Active	Not Active	114							
CCCNC(C)C(=O)Nc1ccccc1C (stereo not drawn) [PRILOCAINE]	Not Active	Not Active	Not Active	Not Active	Not Active	Not Active	Not Active	Not Active	Not Active								
CCN(CC)CCCC(C)Nc1c2ccc(Cl)cc2nc2ccc(OC)cc12 (stereo not drawn) [QUINACRINE]	Not Active	Not Active	Not Active	Not Active		Not Active	Not Active	Not Active	Not Active		3.41	1890					
CC[C@]1(O)C[C@@H]2CN(CCc3c([nH]c4ccccc34)[C@@](C(=O)OC)(c3cc4c(cc3OC)N(C)[C@H]3[C@@](O)(C(N)=O)[C@H](O)[C@]5(CC)C=CCN6CC[C@]43[C@@H]65)C2)C1 [VINDESINE]	Not Active	Not Active	Not Active	Not Active	Not Active	Not Active	Not Active	Not Active	Not Active								
COBALTOUS CHLORIDE	Not Active	Not Active	Not Active	Not Active	Not Active	Not Active	Not Active	Not Active	Not Active				Not Active	Not Active	Not Active	Not Active	Not Active
COLISTIN	Not Active	Not Active	Not Active	Not Active	Not Active	Not Active	Not Active	Not Active	Not Active				Not Active	Not Active	Not Active	Not Active	Not Active
